Data published in patent US10865176B2, “Small molecule modulators of microRNA-34a” (The Chinese University of Hong Kong, priority 2012, dated 2020).
Marks after values point to notes of the source that are not given here.

Key:
[1] = system: miR-34a promoter; assay: miR-34a promoter luciferase activity assay in HCC cells; type: cell-based, human; settings: 10 μM
Experimental: The pMIR-REPORT™ luciferase plasmid (1 μg; Ambion) was sequentially double digested with Sac I and Hind III (10 units each, 50 μL reaction; NEB) and was gel purified. Double stranded insert DNA encoding the miR-34a binding site was synthesized through standard oligonucleotide synthesis methods. The sequences used were Forward: 5′z […]-3′ (SEQ ID NO:1) and Reverse: 5′: […]-3′ (SEQ ID NO:2). The insert was hybridized (heated to 95° C., and cooled to 4° C. over 30 min, then held at 4° C. for 60 min) and ligated with T4 ligase (200 units, 10 μL reaction, 1:10 vector/insert ratio; NEB) into the digested pMIR-REPORT™ luciferase vector. Positive colonies were selected by PCR colony screens, and the construction of the pMIR-REPORT™-miR-34a vector was confirmed by double enzyme digestion with NheI, MluI and Nhe I, Hind III (NEB). The luciferase reporter vector containing the miR-34a promoter was kindly provided by Prof. Mendell J T from Johns Hopkins University (21).
MiR-34a reporter, the luciferase reporter vector containing miR-34a promoter and the control vectors were transfected into HCC cells 12 h before compound treatment. The Renilla luciferase vector pRL-SV40 was co-transfected as an internal control. HCC cells were then treated with compound for 48-72 h. The luciferase activity was measured by Dual Luciferase Reporter Assay (Promega) with a Wallac VICTOR^3V luminometer. The ratio of firefly luciferase to Renilla expression was calculated for each of the triplicates.

[2] = system: HepG2 cells; assay: MTT cell viability assay, HepG2; type: cell-based, human
Experimental: (§1) Cell viability was measured by 3-(4,5-Dimethylthiazol-2-yl)-2,5-diphenyltetrazolium bromide (MTT) assay. 1×10^3 Cells were seeded in triplicate on a 96 well plate and were allowed to grow for indicated time points. At each time point a set of cells were incubated with 0.5 mg/ml MTT diluted in 1×PBS. After 2 to 4 h incubation, the MTT solution was removed. The insoluble MTT was dissolved in DMSO. Absorbance at 570 nm was measured by an ELISA plate reader.

[3] = system: p53; assay: ChIP assay, p53 occupancy on miR-34a promoter; type: cell-based, human; settings: Bel-7404 cells, 10 μM
Experimental: (§2) ChIP assay was performed as described before (26). Cross-linked chromatin were incubated overnight with anti-H3 (Cat #: 9003, Cell Signaling Technology), IgG (Cat #: 9003, Cell Signaling Technology), p53 (Cat #: sc-106, Santa Cruz, Cambridge, Mass.). The precipitated DNA were quantitated absolutely by real-time PCR and normalized by respective 2% input.

[4] = biological target: p53 (Homo sapiens, UniProt P04637); assay: ChIP assay, p53 occupancy on miR-34a promoter; type: cell-based; settings: HepG2 cells, 10 μM
Chain of p53 (Homo sapiens, UniProt P04637) (P04637 whole entry): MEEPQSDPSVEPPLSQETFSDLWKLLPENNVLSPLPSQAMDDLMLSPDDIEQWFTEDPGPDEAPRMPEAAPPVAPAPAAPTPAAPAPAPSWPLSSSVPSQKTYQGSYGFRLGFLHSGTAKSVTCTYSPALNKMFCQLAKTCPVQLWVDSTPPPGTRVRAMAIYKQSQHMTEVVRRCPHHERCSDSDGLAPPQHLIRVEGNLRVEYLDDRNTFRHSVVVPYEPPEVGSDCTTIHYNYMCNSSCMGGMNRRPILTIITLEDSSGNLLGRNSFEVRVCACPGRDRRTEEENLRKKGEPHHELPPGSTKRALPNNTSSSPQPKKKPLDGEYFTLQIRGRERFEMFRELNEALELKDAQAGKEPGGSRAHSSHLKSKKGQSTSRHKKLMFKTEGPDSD
Experimental: as §2

[5] = system: HepG2 xenografted tumors; assay: CD31 immunohistochemical staining of HepG2 xenografted tumors (microvessel density); type: in vivo, nude mice; settings: Rubone treated tumors; control group 67.50; p=0.0098
Experimental: Immunohistochemical staining was performed on HepG2 xenografted tumor tissues with CD31 specific antibody (Cat #: Y059114, Abcam, Cambridge, Mass.). Subcutaneous tumor tissue sections were incubated with anti-CD31 overnight at 4° C. Mean microvessel density was calculated by averaging vessel counts from three random fields per slide.

[6] = system: miR-34a; assay: qRT-PCR of pri-miR-34a and miR-34a in xenografted tumors; type: in vivo, nude mice; settings: excised tumors after 24 d gavage
Experimental: (§3) Total RNA from cell cultures and HCC xenograft tumors were extracted using Trizol (Invitrogen) according to manufacturer's protocols. Total RNAs were dissolved into nuclease-free ddH2O. For protein extraction, cells and HCC xenograft tumors were lysed in 1×RIPA buffer with 1 mM PMSF and 1× complete protease inhibitor cocktail (Roche, Indianapolis, Ind.). Both RNA and protein were stored at −80° C.
(§4) Total RNA was reversely transcribed into cDNAs using High Capacity cDNA Reverse Transcription Kit (Applied Biosystems, Foster city, CA, USA) and nude RT kit (Invitrogen) individually. qRT-PCR was performed using SYBR Green PCR master mix (TaKaRa, Dalian, China). GAPDH was used as an endogenous control. For measuring miR-34a expression level, qPCR was performed by using SYBR Green PCR master mixture (Invitrogen) and U6 was used as the internal control. All samples were normalized to internal controls and fold changes were calculated by relative quantification (2^−ΔΔct).
(§5) Tumor volume was calculated as [(Length×Width×Height)[…]]. Treatment was continued for 24 d. Finally, all mice were sacrificed and tumors were excised. Tumor weight was recorded.

[7] = system: HepG2 xenografted tumor; assay: HepG2 xenografted nude mice model, tumor growth; type: in vivo; settings: for Tumor growth inhibition (%) / Tumor weight (g): gavage once every two days; for Tumor growth inhibition (%): 24 d; for Tumor weight (g): day 24, mean (95% CI)
Experimental: as §5

[8] = system: CDK6, FOXP, Notch1 and Sirtuin; assay: Expression of other miR-34a targets by qRT-PCR in HCC cells; type: cell-based, human; settings: 10 μM, 48 h
Experimental: as §3, §4

[9] = system: Hep3B cells; assay: MTT cell viability assay, Hep3B; type: cell-based, human; settings: different concentrations and time points
Experimental: as §1

[10] = system: Cyclin D1 and Bcl-2; assay: qRT-PCR of Cyclin D1 and Bcl-2 in xenografted tumors; type: in vivo, nude mice; settings: excised tumors after 24 d gavage
Experimental: as §3, §4, §5

[11] = system: miR-7a, miR-21, miR-23a, miR-29c, miR-34c, miR-219, miR-145, miR-192, miR-215; assay: qRT-PCR of a panel of other miRNAs in Huh7 cells; type: cell-based, human; settings: 10 μM, 48 h
Experimental: as §3, §4

[12] = system: human umbilical vein endothelial cells (HUVECs); assay: In vitro tube formation assay; type: cell-based; settings: ECM gel, 4 h
Experimental: The in vitro tube formation assay with human umbilical vein endothelial cells (HUVECs) was performed using the in vitro Angiogenesis Assay Kit (Cell Biolabs). HUVECs were plated at the density of 2×10^4/well and treated with Dimethyl sulfoxide (DMSO) or Rubone ([…] or 2 μM) respectively for 24 h. HUVECs were then seeded onto the ECM gel surface and cultured for 4 h. Then, 100 μl 1× Staining Solution was applied to each well and incubated 30 min at 37° C. and images were captured with an Olympus SC35 camera (Olympus America, Inc., Melville, N.Y.). Tube formation was quantified by counting the number of branching points on each image.

## COc1cc(O)c(C(=O)/C=C/c2cc(OC)c(OC)cc2OC)c(OC)c1 [Rubone, 2′-Hydroxy-2,4,4′,5,6′-pentamethoxychalcone]
[1]; Bel-7404 (p53 mutant)
  miR-34a promoter activity: increased
[1]; Hep3B (p53 deletion)
  miR-34a promoter activity: no change
[1]; HepG2 (p53 wild type)
  miR-34a promoter activity: increased
[2]; HepG2, 2 μM siRNAs targeting p53, 10 μM Rubone
  growth inhibitory effect of Rubone after p53 knockdown (MTT): significantly reversed by knocking down p53
[2]; HepG2, 10 μM
  cell growth (MTT): significantly inhibited the growth
[3]
  p53 occupancy on miR-34a promoter: significantly increased p53 occupancy
[4]
  p53 occupancy on miR-34a promoter: significantly increased p53 occupancy
[5]
  tube score mean (microvessels, CD31 staining): 12.50
[6]
  pri-miR-34a and miR-34a levels in xenografted tumors: up-regulated
[7]; 20 mg/kg
  Tumor growth inhibition (%): 78.27%
  Tumor weight (g): 0.256 (95% CI = 0.08 − 0.42)** g
[7]; 50 mg/kg
  Tumor growth inhibition (%): 89.64%
  Tumor weight (g): 0.122 (95% CI = 0.067 − 0.18)** # g
[7]; same dosage of 50 mg/kg, p=0.047 vs. sorafenib treated group
  tumor growth inhibition compared with Sorafenib: stronger tumor growth inhibition than Sorafenib
[8]; HepG2 cells
  expression levels of CDK6, FOXP, Notch1 and Sirtuin: decreased
[8]; Huh7 cells
  expression levels of CDK6, FOXP, Notch1 and Sirtuin: decreased
[9]
  growth rate (MTT): little changes in the growth rate
[10]
  Cyclin D1 and Bcl-2 expression in xenografted tumors: down-regulated
[11]
  expression of other p53 regulated miRNAs (miR-34c, miR-145, miR-192, miR-215): did not change
  expressions of miR-7a, miR-21, miR-23a, miR-29c, miR-34c and miR-219: not affected
[12]; 1 μM, control group 42.33, p=0.0036
  tube score: 3.667
[12]; 2 μM
  tube formation: no tubes formed at all
